{"source": "patent US11633370B2", "about": "“Use of scavengers of reactive gamma-ketoaldehydes to extend cell lifespan and healthspan” (Vanderbilt University, priority 2016, dated 2023)", "key": {"mice [1]": {"system": "mice", "settings": "administering SA in mice; cited from earlier work"}, "N2 WT C. elegans": {"system": "N2 WT C. elegans", "assay": "Longevity assay, wild-type N2 worms", "type": "in vivo", "settings": "for increase in median lifespan: continuous from Day 1 of adulthood until natural death, versus 16 days; for median lifespan: control 16 days", "procedure": "(§1) C. elegans strains were cultured at 20° C. on standard nematode growth media (NGM) agar plates seeded with Escherichia coli strain NA22. The following strains were used in this work: wild-type C. elegans Bristol strain (N2), sir-2.1(ok434) IV, F19F10.5(ok888) V, and daf-16(mu86). Strains were obtained from the Caenorhabditis Genetics Center (University of Minnesota, St. Paul, Minn.). For generating cultures of 15-day-old (Day 15) adult worms, synchronized late-stage L4s/early young adult worms were transferred to peptone enriched 15 cm plates containing UV-irradiated OP50 E. coli and 0.12 mM 5-fluoro-2′-deoxyuridine (FUDR) to inhibit progeny production[88] with or without drug until harvest.\nNematodes grown on NGM-agar plates containing 0.5% peptone, were harvested, and eggs were isolated by alkaline hypochlorite with 0.5 N NaOH, 1% hypochlorite; 8 min at 23° C. The recovered eggs were rinsed in M9 buffer and placed on fresh agar plates seeded with E. coli strain OP50 and maintained at 20° C. until late-L4/young adult stage. After the late L4/young adult molt, worms were transferred to peptone enriched 15 cm plates containing 0.12 mM FUDR, OP50 E. coli, and varying concentrations of SA. Salicylamine drug plates were made fresh before transfer by spreading SA on top of the agar and plates were allowed to dry. E. coli strain OP50 was exposed to UV radiation for 30 minutes to kill the bacteria before seeding onto the SA-FUDR NGM agar plates. Worms were exposed to SA throughout its life until harvest by transferring worms to fresh SA-FUDR-OP50 NGM plates every other day.\nSurvival cultures were grown on 60-mm agar plates; after the late-stage L4/young adult molt, approximately 100 adults were transferred onto SA-OP50-seeded NGM plates. Salicylamine drug plates were made fresh before transfer by spreading SA on top of the agar. Plates were allowed to dry before seeding with UV-irradiated OP50 bacteria. Worms were maintained at 20° C. and live worms were counted during transfer to freshly made SA-OP50-NGM agar plates every 2-3 days. Survival was scored as movement upon slight touch with the platinum wire. Worms were maintained until death."}, "VC199 [sir-2.1(ok434)]": {"system": "VC199 [sir-2.1(ok434)]", "assay": "Longevity assay, non-functional SIR-2.1 mutant", "type": "in vivo, C. elegans", "settings": "0 μM SA 16 days, p=0.70", "procedure": "A nematode strain carrying a non-functional SIR-2.1 mutation, VC199 [sir-2.1(ok434)] was treated with the same concentrations of SA as were used in lifespan experiments with WT nematodes. Starting at day 1 of adulthood, SIR-2.1 mutants were grown on SA-coated OP50-seeded NGM plates. SIR-2.1 mutant worms were transferred to freshly made SA-OP50-NGM agar plates every 2 days and survival was assessed using a platinum wire until all worms died; survival was scored as movement upon slight touch with the platinum wire (FIG. 3B). When SA was administered to the VC199 strain, the effect of extending median lifespan that had been observed in the N2 strain was entirely abolished (FIG. 3C; VC199 median lifespan: 16 days, 0 μM SA; 15 days, 50 μM SA; 15 days, 100 μM SA; 15 days, 500 μM SA; p=0.70).\nas §1\nNematodes grown on NGM-agar plates containing 0.5% peptone, were harvested, and eggs were isolated by alkaline hypochlorite with 0.5 N NaOH, 1% hypochlorite; 8 min at 23° C. […]\nSurvival cultures were grown on 60-mm agar plates; after the late-stage L4/young adult molt, approximately 100 adults were transferred onto SA-OP50-seeded NGM plates. […] Worms were maintained at 20° C. and live worms were counted during transfer to freshly made SA-OP50-NGM agar plates every 2-3 days. Survival was scored as movement upon slight touch with the platinum wire. […]"}, "MnSOD": {"system": "MnSOD", "assay": "Western blot of acetyl-Lys 122 MnSOD", "type": "in vivo, C. elegans", "settings": "500 μM SA, day 15; WT N2 compared to VC199 treated with the same dose; P>0.05", "text": "One of the major stimuli for activation of sirtuins is oxidative stress. […] Indeed, the mitochondrial antioxidant manganese superoxide dismutase (MnSOD) has been identified as one of the major protein targets that is deacetylated by sirtuin isoforms, with deacetylation enhancing the enzymatic activity of MnSOD [60]. If SA indeed preserves SIR-2.1 enzymatic function in vivo, the present inventors hypothesized that SA treatment would dose-dependently decrease biomarkers of oxidant injury in a SIR-2.1-dependent manner. To quantify oxidant injury, the present inventors measured F3-isoprostanes (F3-IsoPs). F3-IsoPs are the products of free radical-mediated peroxidation of eicosapentaenoic acid (EPA), and are known to be a highly sensitive and accurate marker of oxidative damage in Caenorhabditis elegans. F3—IsoPs were collected from WT N2 and from VC199 (SIR-2.1 deficient strain) nematodes grown on OP50-NGM agar plates containing increasing concentrations of SA from Day 1 of adulthood until collection at Day 15. […] To further characterize SA's ability to preserve SIR-2.1 function, the present inventors assessed acetylation of MnSOD at Lys 122.\nDay 15 adult worms grown on FUDR containing SA-OP50-seeded NGM plates were harvested in M9 medium, followed by floatation on an ice-cold 60% w/v sucrose gradient to segregate clean bacteria-free adult worms from bacterial debris. […]"}, "mice [2]": {"system": "mice", "settings": "administering SA in mice; cited from earlier work", "remark": "listed apart in the source"}, "mice [3]": {"system": "mice", "settings": "cited from earlier work"}, "[4]": {"settings": "in vivo; cited from earlier work"}}}
{"smiles": "NCc1ccccc1O", "note": "[SA, salicylamine]", "values": [{"measurement": "age-related loss of working memory", "setting": "mice [1]", "result": "prevents the age-related loss of working memory"}, {"measurement": "increase in median lifespan", "setting": "N2 WT C. elegans; 50 μM SA", "result": 18, "unit": "%"}, {"measurement": "median lifespan", "setting": "N2 WT C. elegans; 50 μM SA", "result": 19, "unit": "days"}, {"measurement": "increase in median lifespan", "setting": "N2 WT C. elegans; 100 μM SA, p<0.05", "result": 32, "unit": "%"}, {"measurement": "median lifespan", "setting": "N2 WT C. elegans; 100 μM SA", "result": 21, "unit": "days"}, {"measurement": "increase in median lifespan", "setting": "N2 WT C. elegans; 500 μM SA, p<0.01", "result": 56, "unit": "%"}, {"measurement": "median lifespan", "setting": "N2 WT C. elegans; 500 μM SA", "result": 25, "unit": "days"}, {"measurement": "median lifespan", "setting": "VC199 [sir-2.1(ok434)]; 50 μM SA", "result": 15, "unit": "days"}, {"measurement": "median lifespan", "setting": "VC199 [sir-2.1(ok434)]; 100 μM SA", "result": 15, "unit": "days"}, {"measurement": "median lifespan", "setting": "VC199 [sir-2.1(ok434)]; 500 μM SA", "result": 15, "unit": "days"}, {"measurement": "acetyl-Lys 122 in MnSOD", "setting": "MnSOD", "result": "trend toward lower acetyl-Lys 122"}, {"measurement": "development of angiotensin II-induce hypertension", "setting": "mice [2]", "result": "prevents"}, {"measurement": "tolerability, adverse events", "setting": "mice [3]; approximately one year, via drinking water", "result": "no evidence of intolerance and no evidence of excess adverse events"}, {"measurement": "tumor formation", "setting": "mice [3]; long-term SA treatment", "result": "No excess tumor formation"}, {"measurement": "oral bioavailability", "setting": "[4]", "result": "orally bioavailable"}]}
